The values that follow come from ChEMBL document CHEMBL1137759, “Design, parallel synthesis, and crystal structures of biphenyl antithrombotics as selective inhibitors of tissue factor FVIIa complex. Part 1: Exploration of S2 pocket pharmacophores” (Bioorg Med Chem, 2009).

Experiment [1] has as its target Coagulation factor VII/tissue factor (Homo sapiens, UniProt P08709). Briefly: Inhibition of tissue factor/factor 7a. The format is protein-complex assay.
In experiment [2] the target is Prothrombin (Homo sapiens, UniProt P00734). Briefly: Inhibition of thrombin.
The target in experiment [3] is Plasminogen (Homo sapiens, UniProt P00747). Put plainly: Inhibition of plasmin.
Chain of Plasminogen (P00747 97-580 limits assumed): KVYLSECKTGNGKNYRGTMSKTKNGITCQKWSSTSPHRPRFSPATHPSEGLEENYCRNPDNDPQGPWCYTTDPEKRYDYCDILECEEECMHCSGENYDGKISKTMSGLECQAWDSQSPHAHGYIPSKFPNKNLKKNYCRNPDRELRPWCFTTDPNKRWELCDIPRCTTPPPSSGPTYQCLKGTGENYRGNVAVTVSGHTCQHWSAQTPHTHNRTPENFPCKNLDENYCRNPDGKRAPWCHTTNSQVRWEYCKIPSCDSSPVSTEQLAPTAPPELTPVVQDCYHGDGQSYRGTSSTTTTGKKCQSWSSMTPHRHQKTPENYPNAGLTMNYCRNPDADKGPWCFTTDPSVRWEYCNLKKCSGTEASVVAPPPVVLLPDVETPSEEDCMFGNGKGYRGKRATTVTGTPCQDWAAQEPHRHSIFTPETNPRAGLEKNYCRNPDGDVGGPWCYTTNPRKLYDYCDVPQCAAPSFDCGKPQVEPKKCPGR
Chain of Plasminogen (P00747 581-810 limits assumed): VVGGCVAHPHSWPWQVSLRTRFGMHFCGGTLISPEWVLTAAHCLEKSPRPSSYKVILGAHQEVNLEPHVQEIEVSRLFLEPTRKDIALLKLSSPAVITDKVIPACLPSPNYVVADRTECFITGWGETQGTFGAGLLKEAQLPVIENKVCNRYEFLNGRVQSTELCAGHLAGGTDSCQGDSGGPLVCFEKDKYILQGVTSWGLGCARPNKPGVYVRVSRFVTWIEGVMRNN
Experiment [4] is described as follows: Selectivity ratio of IC50 for tissue factor/factor 7a to IC50 for trypsin.
Experiment [5] has as its target Coagulation factor X (Homo sapiens, UniProt P00742).

Broadly, the IC50 is the concentration needed to halve the response being measured.

Chain of Coagulation factor X (P00742 41-179 limits assumed): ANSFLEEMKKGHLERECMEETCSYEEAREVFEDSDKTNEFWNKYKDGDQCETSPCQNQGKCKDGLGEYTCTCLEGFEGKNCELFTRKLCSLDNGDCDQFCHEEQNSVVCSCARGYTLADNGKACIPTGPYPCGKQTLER
Chain of Coagulation factor X (P00742 235-488 limits assumed): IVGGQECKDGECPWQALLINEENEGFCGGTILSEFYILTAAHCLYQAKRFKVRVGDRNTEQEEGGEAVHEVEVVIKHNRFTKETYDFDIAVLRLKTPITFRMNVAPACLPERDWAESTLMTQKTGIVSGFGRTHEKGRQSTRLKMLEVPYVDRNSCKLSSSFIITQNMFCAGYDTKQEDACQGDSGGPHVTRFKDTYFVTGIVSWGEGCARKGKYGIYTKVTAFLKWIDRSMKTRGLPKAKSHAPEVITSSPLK
Chain of Coagulation factor VII/tissue factor (P08709 61-212 limits assumed): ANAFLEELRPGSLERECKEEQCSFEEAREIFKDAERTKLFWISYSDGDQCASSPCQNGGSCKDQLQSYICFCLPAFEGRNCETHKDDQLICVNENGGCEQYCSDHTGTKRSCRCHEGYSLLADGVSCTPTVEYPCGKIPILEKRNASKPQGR
Chain of Coagulation factor VII/tissue factor (P08709 213-466 limits assumed): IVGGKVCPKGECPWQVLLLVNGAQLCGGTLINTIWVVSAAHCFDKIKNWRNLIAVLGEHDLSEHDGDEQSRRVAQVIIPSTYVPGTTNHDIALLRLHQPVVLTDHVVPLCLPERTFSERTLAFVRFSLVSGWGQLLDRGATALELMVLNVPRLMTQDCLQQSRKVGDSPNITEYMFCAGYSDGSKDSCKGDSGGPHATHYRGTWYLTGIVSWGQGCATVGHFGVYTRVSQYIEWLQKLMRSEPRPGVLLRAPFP
Chain of Coagulation factor VII/tissue factor (P13726 33-295 partner limits assumed): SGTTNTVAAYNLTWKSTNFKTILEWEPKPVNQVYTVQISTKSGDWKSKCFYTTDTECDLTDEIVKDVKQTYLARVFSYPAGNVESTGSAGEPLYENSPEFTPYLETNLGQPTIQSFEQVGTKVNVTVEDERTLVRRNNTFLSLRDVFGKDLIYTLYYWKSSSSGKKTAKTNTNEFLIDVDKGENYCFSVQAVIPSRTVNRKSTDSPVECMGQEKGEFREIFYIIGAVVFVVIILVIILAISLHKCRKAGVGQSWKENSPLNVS

On to `CC(C)CNC(=O)c1ccc(-c2ccc(C#CC(C)(C)O)cc2C(=O)Nc2ccc(C(=N)N)cc2)c(C(=O)O)c1`, for which, in experiment [1], the IC50 is 926 nM.

`CCc1ccc(-c2ccc(C(=O)NCC(C)C)cc2C(=O)O)c(C(=O)Nc2ccc(C(=N)N)cc2)c1`: the IC50 is 97 nM in experiment [1], 12300 nM in experiment [2], above 5000 nM in experiment [3] and 50000 nM in experiment [5]. Besides, the Ratio IC50 in experiment [4] came to 61.8.

Consider `CC(C)CNC(=O)c1ccc(-c2ccc(-c3ccsc3CO)cc2C(=O)Nc2ccc(C(=N)N)cc2)c(C(=O)O)c1`, for which the IC50 in experiment [1] turned out to be 36 nM; in experiment [2], 50000 nM; in experiment [3], 408 nM; in experiment [5] it was 450 nM. In addition, the Ratio IC50 in experiment [4] is 84.4.

Compound `CC(C)CNC(=O)c1ccc(-c2ccc(CN=[N+]=[N-])cc2C(=O)Nc2ccc(C(=N)N)cc2)c(C(=O)O)c1` returned an IC50 in experiment [1] of 60 nM.

Regarding `CC(C)CNC(=O)c1ccc(-c2ccc(-c3ccco3)cc2C(=O)Nc2ccc(C(=N)N)cc2)c(C(=O)O)c1`, the concentration for half-maximal inhibition (IC50) in experiment [1] stood at 9 nM; in experiment [2], 14700 nM; in experiment [3], 163 nM; in experiment [5], 1300 nM. For the same compound, in experiment [4], the Ratio IC50 is 41.4.

In turn, `CC(C)CNC(=O)c1ccc(-c2ccc(-c3ccc(CO)s3)cc2C(=O)Nc2ccc(C(=N)N)cc2)c(C(=O)O)c1` gave an IC50 in experiment [1] of 650 nM.

Take `C/C=C\Cc1ccc(-c2ccc(C(=O)NCC(C)C)cc2C(=O)O)c(C(=O)Nc2ccc(C(=N)N)cc2)c1`: the IC50 in experiment [1] amounted to 11 nM; in experiment [2], 4880 nM; in experiment [3] it was 684 nM; in experiment [5] it was 7600 nM. Besides, the Ratio IC50 in experiment [4] was 119.

Take `CC(C)CNC(=O)c1ccc(-c2ccc(-c3ccoc3CO)cc2C(=O)Nc2ccc(C(=N)N)cc2)c(C(=O)O)c1`: the IC50 is 8 nM in experiment [1], above 50000 nM in experiment [2], 457 nM in experiment [3] and 20 nM in experiment [5]. For the same compound, the Ratio IC50 in experiment [4] was determined as 92.5.

For `CC(C)CNC(=O)c1ccc(-c2ccc(-c3nccs3)cc2C(=O)Nc2ccc(C(=N)N)cc2)c(C(=O)O)c1`, the IC50 was determined as 104 nM in experiment [1], 70400 nM in experiment [2], 494 nM in experiment [3] and 230 nM in experiment [5]. Moreover, the Ratio IC50 in experiment [4] worked out at 14.1.

As to `C=C(CO)c1ccc(-c2ccc(C(=O)NCC(C)C)cc2C(=O)O)c(C(=O)Nc2ccc(C(=N)N)cc2)c1`, the IC50 in experiment [1] is 12 nM; in experiment [2], 39700 nM; in experiment [3] it was 810 nM; in experiment [5], 7100 nM. Besides, in experiment [4], the Ratio IC50 worked out at 295.

Take `CC(C)CNC(=O)c1ccc(-c2ccc(-c3cscc3CN)cc2C(=O)Nc2ccc(C(=N)N)cc2)c(C(=O)O)c1`: the IC50 in experiment [1] turned out to be 33 nM; in experiment [2] it was 110000 nM; in experiment [3], 229 nM; in experiment [5], 10 nM. Moreover, in experiment [4], the Ratio IC50 was determined as 54.2.

As to `CC(C)CNC(=O)c1ccc(-c2ccccc2C(=O)Nc2ccc(C(=N)N)cc2)c(C(=O)O)c1`, the results for the IC50 in experiment [1], in experiment [2] and in experiment [5] were 120 nM, 64000 nM and 103000 nM, respectively. Further, in experiment [4], the Ratio IC50 came to 1.5.

Take `C=CCc1ccc(-c2ccc(C(=O)NCC(C)C)cc2C(=O)O)c(C(=O)Nc2ccc(C(=N)N)cc2)c1`: the IC50 in experiment [1] turned out to be 42 nM; in experiment [2], 19200 nM; in experiment [3], 2470 nM; in experiment [5], 1900 nM. The Ratio IC50 in experiment [4] came out at 57.6.

Compound `CC(C)CNC(=O)c1ccc(-c2ccc(CN)cc2C(=O)Nc2ccc(C(=N)N)cc2)c(C(=O)O)c1` returned an IC50 in experiment [1] of 1220 nM.

In the case of `CC(C)CNC(=O)c1ccc(-c2ccc(-c3ccccc3)cc2C(=O)Nc2ccc(C(=N)N)cc2)c(C(=O)O)c1`, the IC50 in experiment [1] amounted to 98 nM; in experiment [2], 11800 nM; in experiment [5], 350 nM. In experiment [4], the Ratio IC50 was 4.3.

As to `CC(C)CNC(=O)c1ccc(-c2ccc(-c3cccn3C)cc2C(=O)Nc2ccc(C(=N)N)cc2)c(C(=O)O)c1`, the IC50 was determined as 76 nM in experiment [1], 86900 nM in experiment [2] and 50 nM in experiment [5]. In addition, in experiment [4], the Ratio IC50 stood at 5.4.

On to `CC(C)CNC(=O)c1ccc(-c2ccc(C=CCO)cc2C(=O)Nc2ccc(C(=N)N)cc2)c(C(=O)O)c1`, for which the IC50 was 52 nM in experiment [1], 22700 nM in experiment [2] and 6620 nM in experiment [5]. The Ratio IC50 in experiment [4] stood at 34.

Compound `CC(C)CNC(=O)c1ccc(-c2ccc(-c3ccsc3C(=O)O)cc2C(=O)Nc2ccc(C(=N)N)cc2)c(C(=O)O)c1` registered an IC50 in experiment [1] of 190 nM.

On to `C=Cc1ccc(-c2ccc(C(=O)NCC(C)C)cc2C(=O)O)c(C(=O)Nc2ccc(C(=N)N)cc2)c1`, for which the values for the IC50 in experiment [1], in experiment [2] and in experiment [5] were 9 nM, 9400 nM and 1650 nM, respectively. Also, the Ratio IC50 in experiment [4] was 52.2.

In turn, `CC(C)CNC(=O)c1ccc(-c2ccc(C(O)CO)cc2C(=O)Nc2ccc(C(=N)N)cc2)c(C(=O)O)c1` (stereo unspecified) registered a 50% inhibitory concentration (IC50) in experiment [1] of 1610 nM.

Regarding `C=C=Cc1ccc(-c2ccc(C(=O)NCC(C)C)cc2C(=O)O)c(C(=O)Nc2ccc(C(=N)N)cc2)c1`, the figures for the half-maximal inhibitory concentration (IC50) in experiment [1], in experiment [2] and in experiment [5] were 9 nM, 28000 nM and 1500 nM, respectively. In addition, the Ratio IC50 in experiment [4] was determined as 59.8.

Consider `CC(C)CNC(=O)c1ccc(-c2ccc(-c3ccncc3)cc2C(=O)Nc2ccc(C(=N)N)cc2)c(C(=O)O)c1`, for which the IC50 in experiment [1] worked out at 231 nM; in experiment [2] it was 35400 nM; in experiment [5] it was 19400 nM. Besides, in experiment [4], the Ratio IC50 came to 5.3.

For `CC(C)CNC(=O)c1ccc(-c2ccc(C#CCO)cc2C(=O)Nc2ccc(C(=N)N)cc2)c(C(=O)O)c1`, in experiment [1], the IC50 amounted to 320 nM.

For the compound `CC(C)CNC(=O)c1ccc(-c2ccc(-c3cccs3)cc2C(=O)Nc2ccc(C(=N)N)cc2)c(C(=O)O)c1`, the figures for the IC50 in experiment [1], in experiment [2] and in experiment [5] were 10 nM, 8020 nM and 150 nM, respectively. The Ratio IC50 in experiment [4] is 16.

Consider `CC(C)CNC(=O)c1ccc(-c2ccc(-c3cccnc3)cc2C(=O)Nc2ccc(C(=N)N)cc2)c(C(=O)O)c1`, for which the IC50 in experiment [1] was 546 nM; in experiment [2], 50000 nM; in experiment [5], 36500 nM. Further, the Ratio IC50 in experiment [4] worked out at 5.5.

On to `CC(C)CNC(=O)c1ccc(-c2ccc(C#CCCO)cc2C(=O)Nc2ccc(C(=N)N)cc2)c(C(=O)O)c1`, for which the IC50 was determined as 500 nM in experiment [1], 17900 nM in experiment [2] and 59000 nM in experiment [5]. For the same compound, the Ratio IC50 in experiment [4] amounted to 0.8.

`CC(C)CNC(=O)c1ccc(-c2ccc(-c3ccc[nH]3)cc2C(=O)Nc2ccc(C(=N)N)cc2)c(C(=O)O)c1`: the IC50 in experiment [1] is 14 nM; in experiment [2], 19900 nM; in experiment [5] it was 50 nM. Moreover, the Ratio IC50 in experiment [4] stood at 30.7.

For the compound `CC(C)CNC(=O)c1ccc(-c2ccc(-c3sccc3CO)cc2C(=O)Nc2ccc(C(=N)N)cc2)c(C(=O)O)c1`, the IC50 came out at 330 nM in experiment [1], 50000 nM in experiment [2] and 640 nM in experiment [5]. The Ratio IC50 in experiment [4] came out at 13.3.

For `CC(C)CNC(=O)c1ccc(-c2ccc(O)cc2C(=O)Nc2ccc(C(=N)N)cc2)c(C(=O)O)c1`, the concentration for half-maximal inhibition (IC50) in experiment [1] worked out at 67 nM; in experiment [2], 50000 nM; in experiment [5] it was 50000 nM. Besides, in experiment [4], the Ratio IC50 is 5.7.

Consider `C=C(C)/C=C\c1ccc(-c2ccc(C(=O)NCC(C)C)cc2C(=O)O)c(C(=O)Nc2ccc(C(=N)N)cc2)c1`, for which the IC50 in experiment [1] was found to be 130 nM; in experiment [5] it was 310 nM.
